Laboratory results as given in patent US8946234B2, “Halogen-substituted compounds” (Bayer CropScience AG, priority 2008, dated 2015).

Experiment: logP by HPLC on a C18 phase inversion column, EEC Directive 79/831 Annex V.A8, method b) (HP1100, 5-95% acetonitrile in 1.70 min)
Type: physicochemical
Conditions: HPLC method b)
Procedure: ^b) Note regarding the determination of the log P values and mass detection: The log P values given were determined in accordance with EEC Directive 79/831 Annex V.A8 by HPLC (High Performance Liquid Chromatography) on a phase inversion column (C18). HP1100; 50*4.6 Zorbax Eclipse Plus C18 1.8 micron; eluent A: acetonitrile (0.1% formic acid); eluent B: water (0.08% formic acid); linear gradient from 5% acetonitrile to 95% acetonitrile in 1.70 min, then 95% acetonitrile for a further 1.00 min; oven temperature 55° C.; flow: 2.0 ml/min. The mass detection is carried out via the mass detector Micromass ZQ2000 from Waters.

| Structure (SMILES) | logP |
| --- | --- |
| Cn1nc(C(F)(F)C(F)(F)F)c(C(F)(F)F)c1C(=O)Nc1ccc(Cl)c(C(=O)NCC#N)c1 [Ik-48] | 2.93^b) |
| C#CC(C)NC(=O)c1cc(NC(=O)c2c(C(F)(F)F)c(C(F)(F)C(F)(F)F)nn2C)ccc1Cl (stereo not shown) [Ik-293] | 3.28^b) |
| Cn1nc(C(F)(F)C(F)(F)F)c(C(F)(F)F)c1C(=O)Nc1ccc(Cl)c(C(=O)NCc2cccc(F)c2)c1 [Ik-49] | 3.78^b) |
| CC(CF)NC(=O)c1cc(NC(=O)c2c(C(F)(F)F)c(C(F)(F)C(F)(F)F)nn2C)ccc1Cl (stereo not shown) [Ik-290] | 3.28^b) |
| CC(NC(=O)c1cc(NC(=O)c2c(C(F)(F)F)c(C(F)(F)C(F)(F)F)nn2C)ccc1Cl)c1ccccc1 (stereo not shown) [Ik-38] | 3.89^b) |
| Cc1c(C(F)(F)C(F)(F)F)nn(C)c1C(=O)Nc1ccc(Cl)c(C(=O)NCc2ccccc2)c1 [Ik-271] | 3.42^b) |
| Cn1nc(C(F)(F)C(F)(F)F)c(C(F)(F)F)c1C(=O)Nc1ccc(Cl)c(C(=O)NCc2nc(C(F)(F)F)cs2)c1 [Ik-273] | 3.75^b) |
| Cn1nc(C(F)(F)C(F)(F)F)c(C(F)(F)F)c1C(=O)Nc1ccc(Cl)c(C(=O)NCc2ccncc2)c1 [Ik-313] | 1.93^b) |
| CC(NC(=O)c1cc(NC(=O)c2c(C(F)(F)F)c(C(F)(F)C(F)(F)F)nn2C)ccc1Cl)c1ccccc1F (stereo not shown) [Ik-284] | 4.00^b) |
| CC(C)N(C)C(=O)c1cc(NC(=O)c2c(C(F)(F)F)c(C(F)(F)C(F)(F)F)nn2C)ccc1Cl [Ik-35] | 3.73^b) |
| Cn1nc(C(F)(F)C(F)(F)F)c(C(F)(F)F)c1C(=O)Nc1ccc(Cl)c(C(=O)NCC2(C)COC2)c1 [Ik-45] | 2.98^b) |
| C[C@@H](NC(=O)c1cc(NC(=O)c2c(C(F)(F)F)c(C(F)(F)C(F)(F)F)nn2C)ccc1Cl)C(F)(F)F [Ik-307] | 3.78^b) |
| CC(C)[C@H](NC(=O)c1cc(NC(=O)c2c(C(F)(F)F)c(C(F)(F)C(F)(F)F)nn2C)ccc1Cl)C(F)(F)F [Ik-310] | 3.89^b) |
| Cc1ccc(CNC(=O)c2cc(NC(=O)c3c(C(F)(F)F)c(C(F)(F)C(F)(F)F)nn3C)ccc2Cl)cc1 [Ik-306] | 3.94^b) |
| CCc1c(C(F)(F)C(F)(F)F)nn(C)c1C(=O)Nc1ccc(Cl)c(C(=O)NCc2ccccc2)c1 [Ik-272] | 3.68^b) |
| CN(C(=O)c1cc(NC(=O)c2c(C(F)(F)F)c(C(F)(F)C(F)(F)F)nn2C)ccc1Cl)C1CC1 [Ik-31] | 3.51^b) |
| Cn1nc(C(F)(F)C(F)(F)F)c(C(F)(F)F)c1C(=O)Nc1ccc(Cl)c(C(=O)NC(C)(C)CS(C)(=O)=O)c1 [Ik-301] | 3.02^b) |
| Cn1nc(C(F)(F)C(F)(F)F)c(C(F)(F)F)c1C(=O)Nc1ccc(Cl)c(C(=O)NC2(C(F)(F)F)CC2)c1 [Ik-296] | 3.58^b) |
| Cn1nc(C(F)(F)C(F)(F)F)c(C(F)(F)F)c1C(=O)Nc1ccc(Cl)c(C(=O)NC2CC2c2ccccc2)c1 (stereo not shown) [Ik-47] | 4.00^b) |
| CC(NC(=O)c1cc(NC(=O)c2c(C(F)(F)F)c(C(F)(F)C(F)(F)F)nn2C)ccc1Cl)C1(Cl)CC1 (stereo not shown) [Ik-288] | 4.05^b) |
| Cn1nc(C(F)(F)C(F)(F)F)c(C(F)(F)F)c1C(=O)Nc1ccc(Cl)c(C(=O)NC2CCCC2)c1 [Ik-39] | 3.78^b) |
| Cn1cc(C(F)(F)F)nc1C(NC(=O)c1cc(NC(=O)c2c(C(F)(F)F)c(C(F)(F)C(F)(F)F)nn2C)ccc1Cl)C(F)(F)F (stereo not shown) [Ik-276] | 4.00^b) |
| CCCNC(=O)c1cc(NC(=O)c2c(C(F)(F)F)c(C(F)(F)C(F)(F)F)nn2C)ccc1Cl [Ik-30] | 3.23^b) |
| CCC(NC(=O)c1cc(NC(=O)c2c(C(F)(F)F)c(C(F)(F)C(F)(F)F)nn2C)ccc1Cl)C(F)(F)F (stereo not shown) [Ik-297] | 3.89^b) |
| CCCC(NC(=O)c1cc(NC(=O)c2c(C(F)(F)F)c(C(F)(F)C(F)(F)F)nn2C)ccc1Cl)C(F)(F)F (stereo not shown) [Ik-298] | 4.11^b) |

| Structure (SMILES) | logP |
| --- | --- |
| C[C@H]1C[C@H]1NC(=O)c1cc(NC(=O)c2c(C(F)(F)F)c(C(F)(F)C(F)(F)F)nn2C)ccc1Cl [Ik-279] | 3.37^b) |
| Cn1nc(C(F)(F)C(F)(F)F)c(C(F)(F)F)c1C(=O)Nc1ccc(Cl)c(C(=O)NC2COC2)c1 [Ik-32] | 2.76^b) |
| Cn1nc(C(F)(F)C(F)(F)F)c(C(F)(F)F)c1C(=O)Nc1ccc(Cl)c(C(=O)NCc2ccccc2Cl)c1 [Ik-282] | 4.05^b) |
| Cn1nc(C(F)(F)C(F)(F)F)c(C(F)(F)F)c1C(=O)Nc1ccc(Cl)c(C(=O)NC2CC=CC2)c1 [Ik-287] | 3.63^b) |
| CC(O)CNC(=O)c1cc(NC(=O)c2c(C(F)(F)F)c(C(F)(F)C(F)(F)F)nn2C)ccc1Cl (stereo not shown) [Ik-33] | 2.65^b) |
| Cn1nc(C(F)(F)C(F)(F)F)c(C(F)(F)F)c1C(=O)Nc1ccc(Cl)c(C(=O)NC(C2CC2)C2CC2)c1 [Ik-61] | 4.00^b) |
| Cn1nc(C(F)(F)C(F)(F)F)c(C(F)(F)F)c1C(=O)Nc1ccc(Cl)c(C(=O)NC2CC2(F)F)c1 (stereo not shown) [Ik-6] | 3.33^b) |
| Cn1nc(C(F)(F)C(F)(F)F)c(C(F)(F)F)c1C(=O)Nc1ccc(Cl)c(C(=O)NC2C=CS(=O)(=O)C2)c1 (stereo not shown) [Ik-278] | 2.80^b) |
| Cn1nc(C(F)(F)C(F)(F)F)c(C(F)(F)F)c1C(=O)Nc1ccc(Cl)c(C(=O)NCc2c(F)cccc2F)c1 [Ik-37] | 3.73^b) |
| CC(C#N)NC(=O)c1cc(NC(=O)c2c(C(F)(F)F)c(C(F)(F)C(F)(F)F)nn2C)ccc1Cl (stereo not shown) [Ik-292] | 3.02^b) |
| CC(NC(=O)c1cc(NC(=O)c2c(C(F)(F)F)c(C(F)(F)C(F)(F)F)nn2C)ccc1Cl)c1cccc(F)c1 (stereo not shown) [Ik-303] | 3.89^b) |
| Cn1nc(C(F)(F)C(F)(F)F)c(C(F)(F)F)c1C(=O)Nc1ccc(Cl)c(C(=O)NCc2ncn[nH]2)c1 [Ik-29] | 2.31^b) |
| Cn1nc(C(F)(F)C(F)(F)F)c(C(F)(F)F)c1C(=O)Nc1ccc(Cl)c(C(=O)NCc2ccccc2F)c1 [Ik-52] | 3.73^b) |
| Cn1nc(C(F)(F)C(F)(F)F)c(C(F)(F)F)c1C(=O)Nc1ccc(Cl)c(C(=O)NCc2ccon2)c1 [Ik-43] | 3.02^b) |
| Cn1nc(C(F)(F)C(F)(F)F)c(C(F)(F)F)c1C(=O)Nc1ccc(Cl)c(C(=O)NCC(C)(C)CF)c1 [Ik-42] | 3.68^b) |
| Cc1csc(C(NC(=O)c2cc(NC(=O)c3c(C(F)(F)F)c(C(F)(F)C(F)(F)F)nn3C)ccc2Cl)C(F)(F)F)n1 (stereo not shown) [Ik-277] | 4.00^b) |
| Cn1nc(C(F)(F)C(F)(F)F)c(C(F)(F)F)c1C(=O)Nc1ccc(Cl)c(C(=O)NCCOCC(F)(F)F)c1 [Ik-281] | 3.53^b) |
| Cn1nc(C(F)(F)C(F)(F)F)c(C(F)(F)F)c1C(=O)Nc1ccc(Cl)c(C(=O)NCc2cc(F)ccc2F)c1 [Ik-54] | 3.84^b) |
| CCC1CC1NC(=O)c1cc(NC(=O)c2c(C(F)(F)F)c(C(F)(F)C(F)(F)F)nn2C)ccc1Cl (stereo not shown) [Ik-286] | 3.84^b) |
| Cn1nc(C(F)(F)C(F)(F)F)c(C(F)(F)F)c1C(=O)Nc1ccc(Cl)c(C(=O)NCc2ccc(F)cc2)c1 [Ik-312] | 3.73^b) |
| Cn1nc(C(F)(F)C(F)(F)F)c(C(F)(F)F)c1C(=O)Nc1ccc(Cl)c(C(=O)NCCc2ccc(Cl)cc2)c1 [Ik-40] | 4.23^b) |
| Cn1nc(C(F)(F)C(F)(F)F)c(C(F)(F)F)c1C(=O)Nc1ccc(Cl)c(C(=O)NC(C)(C)CC(F)(F)F)c1 [Ik-300] | 4.00^b) |
| Cn1nc(C(F)(F)C(F)(F)F)c(C(F)(F)F)c1C(=O)Nc1ccc(Cl)c(C(=O)NC(C)(C)C=C(Cl)Cl)c1 [Ik-44] | 4.28^b) |
| COC(=O)CNC(=O)c1cc(NC(=O)c2c(C(F)(F)F)c(C(F)(F)C(F)(F)F)nn2C)ccc1Cl [Ik-34] | 3.04^b) |
